Assay: xn = mol fraction of the nth substance listed
Conditions: 81.5 kPa, Liquid; for speed of sound: Sing-around technique in a fixed-path interferometer; for mass density: Vibrating tube method

CCn1cc[n+](C)c1.F[B-](F)(F)F [1-ethyl-3-methylimidazolium tetrafluoroborate] + CN(C)C=O
Conditions | mass density [kg/m3] | speed of sound [m/s]
293.15 K, x1 = 0.0997 | 1019.18 | 1524.5
293.15 K, x1 = 0.2042 | 1075.44 | 1552.3
293.15 K, x1 = 0.2983 | 1116.82 | 1571.7
293.15 K, x1 = 0.4111 | 1157.47 | 1589.3
293.15 K, x1 = 0.5003 | 1184.76 | 1600.9
293.15 K, x1 = 0.585 | 1206.75 | 1609.6
293.15 K, x1 = 0.6965 | 1231.36 | 1618.8
293.15 K, x1 = 0.7833 | 1247.19 | 1625.5
293.15 K, x1 = 0.9134 | 1267.67 | 1633.1
293.15 K, x1 = 1 | 1285.95 | 1640.4
298.15 K, x1 = 0.0997 | 1014.69 | 1506.5
298.15 K, x1 = 0.2042 | 1071.12 | 1535.6
298.15 K, x1 = 0.2983 | 1112.62 | 1555.9
298.15 K, x1 = 0.4111 | 1153.38 | 1574.6
298.15 K, x1 = 0.5003 | 1180.74 | 1586.9
298.15 K, x1 = 0.585 | 1202.77 | 1596.1
298.15 K, x1 = 0.6965 | 1227.44 | 1605.9
298.15 K, x1 = 0.7833 | 1243.3 | 1612.9
298.15 K, x1 = 0.9134 | 1263.82 | 1620.9
298.15 K, x1 = 1 | 1282.14 | 1628.4
303.15 K, x1 = 0.0997 | 1010.19 | 1488.6
303.15 K, x1 = 0.2042 | 1066.81 | 1519
303.15 K, x1 = 0.2983 | 1108.42 | 1540.4
303.15 K, x1 = 0.4111 | 1149.29 | 1560.1
303.15 K, x1 = 0.5003 | 1176.72 | 1573
303.15 K, x1 = 0.585 | 1198.81 | 1582.7
303.15 K, x1 = 0.6965 | 1223.53 | 1593
303.15 K, x1 = 0.7833 | 1239.43 | 1600.5
303.15 K, x1 = 0.9134 | 1259.99 | 1608.8
303.15 K, x1 = 1 | 1278.34 | 1616
308.15 K, x1 = 0.0997 | 1005.7 | 1470.8
308.15 K, x1 = 0.2042 | 1062.49 | 1502.6
308.15 K, x1 = 0.2983 | 1104.23 | 1524.9
308.15 K, x1 = 0.4111 | 1145.23 | 1545.6
308.15 K, x1 = 0.5003 | 1172.72 | 1559.2
308.15 K, x1 = 0.585 | 1194.86 | 1569.4
308.15 K, x1 = 0.6965 | 1219.63 | 1580.3
308.15 K, x1 = 0.7833 | 1235.57 | 1588.2
308.15 K, x1 = 0.9134 | 1256.17 | 1596.9
308.15 K, x1 = 1 | 1274.55 | 1604.9
313.15 K, x1 = 0.0997 | 1001.2 | 1453.1
313.15 K, x1 = 0.2042 | 1058.19 | 1486.2
313.15 K, x1 = 0.2983 | 1100.05 | 1509.6
313.15 K, x1 = 0.4111 | 1141.17 | 1531.3
313.15 K, x1 = 0.5003 | 1168.73 | 1545.6
313.15 K, x1 = 0.585 | 1190.92 | 1556.3
313.15 K, x1 = 0.6965 | 1215.75 | 1567.7
313.15 K, x1 = 0.7833 | 1231.73 | 1576
313.15 K, x1 = 0.9134 | 1252.37 | 1585
313.15 K, x1 = 1 | 1270.78 | 1593.4
318.15 K, x1 = 0.0997 | 996.709 | 1435.6
318.15 K, x1 = 0.2042 | 1053.89 | 1470
318.15 K, x1 = 0.2983 | 1095.88 | 1494.4
318.15 K, x1 = 0.4111 | 1137.12 | 1517.1
318.15 K, x1 = 0.5003 | 1164.76 | 1532
318.15 K, x1 = 0.585 | 1187 | 1543.3
318.15 K, x1 = 0.6965 | 1211.89 | 1555.3
318.15 K, x1 = 0.7833 | 1227.91 | 1563.9
318.15 K, x1 = 0.9134 | 1248.58 | 1573.3
318.15 K, x1 = 1 | 1267.03 | 1582
323.15 K, x1 = 0.0997 | 992.209 | 1418.1
323.15 K, x1 = 0.2042 | 1049.59 | 1453.8
323.15 K, x1 = 0.2983 | 1091.72 | 1479.3
323.15 K, x1 = 0.4111 | 1133.08 | 1503
323.15 K, x1 = 0.5003 | 1160.79 | 1518.6
323.15 K, x1 = 0.585 | 1183.1 | 1530.4
323.15 K, x1 = 0.6965 | 1208.05 | 1542.9
323.15 K, x1 = 0.7833 | 1224.11 | 1551.9
323.15 K, x1 = 0.9134 | 1244.82 | 1561.7
323.15 K, x1 = 1 | 1263.3 | 1570.6
328.15 K, x1 = 0.0997 | 987.708 | 1400.7
328.15 K, x1 = 0.2042 | 1045.31 | 1437.8
328.15 K, x1 = 0.2983 | 1087.57 | 1464.2
328.15 K, x1 = 0.4111 | 1129.05 | 1489
328.15 K, x1 = 0.5003 | 1156.85 | 1505.2
328.15 K, x1 = 0.585 | 1179.21 | 1517.6
328.15 K, x1 = 0.6965 | 1204.22 | 1530.6
328.15 K, x1 = 0.7833 | 1220.32 | 1540
328.15 K, x1 = 0.9134 | 1241.07 | 1550.1
328.15 K, x1 = 1 | 1259.58 | 1559.4
333.15 K, x1 = 0.0997 | 983.204 | 1383.3
333.15 K, x1 = 0.2042 | 1041.01 | 1421.8
333.15 K, x1 = 0.2983 | 1083.42 | 1449.3
333.15 K, x1 = 0.4111 | 1125.03 | 1475
333.15 K, x1 = 0.5003 | 1152.91 | 1492
333.15 K, x1 = 0.585 | 1175.33 | 1504.8
333.15 K, x1 = 0.6965 | 1200.41 | 1518.4
333.15 K, x1 = 0.7833 | 1216.55 | 1528.2
333.15 K, x1 = 0.9134 | 1237.34 | 1538.7
333.15 K, x1 = 1 | 1255.88 | 1548.2
338.15 K, x1 = 0.0997 | 978.699 | 1366.1
338.15 K, x1 = 0.2042 | 1036.73 | 1405.9
338.15 K, x1 = 0.2983 | 1079.28 | 1434.5
338.15 K, x1 = 0.4111 | 1121.03 | 1461.2
338.15 K, x1 = 0.5003 | 1148.99 | 1478.9
338.15 K, x1 = 0.585 | 1171.47 | 1492.2
338.15 K, x1 = 0.6965 | 1196.61 | 1506.4
338.15 K, x1 = 0.7833 | 1212.8 | 1516.5
338.15 K, x1 = 0.9134 | 1233.63 | 1527.4
338.15 K, x1 = 1 | 1252.2 | 1537.2
343.15 K, x1 = 0.0997 | 974.184 | 1348.9
343.15 K, x1 = 0.2042 | 1032.45 | 1390.2
343.15 K, x1 = 0.2983 | 1075.15 | 1419.8
343.15 K, x1 = 0.4111 | 1117.03 | 1447.5
343.15 K, x1 = 0.5003 | 1145.07 | 1465.8
343.15 K, x1 = 0.585 | 1167.62 | 1479.7
343.15 K, x1 = 0.6965 | 1192.82 | 1494.4
343.15 K, x1 = 0.7833 | 1209.06 | 1504.9
343.15 K, x1 = 0.9134 | 1229.93 | 1516.1
343.15 K, x1 = 1 | 1248.54 | 1526.2

Source: the NIST ThermoML archive (doi:10.1021/acs.jced.6b00496)
